Source: US20060141496A1, “Method of screening substance interacting with ABC protein” (priority 2003, published 2006)

What was measured:
[1] = biological target: T1, human P-glycoprotein (Pgp or MDR 1) expressing membrane (Homo sapiens, UniProt P08183); assay: [3H] ADP binding amount by vanadate method, suction cleaning on 96-well glass filter, P-glycoprotein-expressing membrane; format: biochemical; conditions: substrate 0.05 mM; reaction time 5 minutes; 37° C.; background of control membrane subtracted; FIG. 4
T1 construct: purchased Daiichi Pure Chemicals Co. No. 453228; host or cells: Sf9 insect cell membrane
T1 sequence (P08183 whole entry): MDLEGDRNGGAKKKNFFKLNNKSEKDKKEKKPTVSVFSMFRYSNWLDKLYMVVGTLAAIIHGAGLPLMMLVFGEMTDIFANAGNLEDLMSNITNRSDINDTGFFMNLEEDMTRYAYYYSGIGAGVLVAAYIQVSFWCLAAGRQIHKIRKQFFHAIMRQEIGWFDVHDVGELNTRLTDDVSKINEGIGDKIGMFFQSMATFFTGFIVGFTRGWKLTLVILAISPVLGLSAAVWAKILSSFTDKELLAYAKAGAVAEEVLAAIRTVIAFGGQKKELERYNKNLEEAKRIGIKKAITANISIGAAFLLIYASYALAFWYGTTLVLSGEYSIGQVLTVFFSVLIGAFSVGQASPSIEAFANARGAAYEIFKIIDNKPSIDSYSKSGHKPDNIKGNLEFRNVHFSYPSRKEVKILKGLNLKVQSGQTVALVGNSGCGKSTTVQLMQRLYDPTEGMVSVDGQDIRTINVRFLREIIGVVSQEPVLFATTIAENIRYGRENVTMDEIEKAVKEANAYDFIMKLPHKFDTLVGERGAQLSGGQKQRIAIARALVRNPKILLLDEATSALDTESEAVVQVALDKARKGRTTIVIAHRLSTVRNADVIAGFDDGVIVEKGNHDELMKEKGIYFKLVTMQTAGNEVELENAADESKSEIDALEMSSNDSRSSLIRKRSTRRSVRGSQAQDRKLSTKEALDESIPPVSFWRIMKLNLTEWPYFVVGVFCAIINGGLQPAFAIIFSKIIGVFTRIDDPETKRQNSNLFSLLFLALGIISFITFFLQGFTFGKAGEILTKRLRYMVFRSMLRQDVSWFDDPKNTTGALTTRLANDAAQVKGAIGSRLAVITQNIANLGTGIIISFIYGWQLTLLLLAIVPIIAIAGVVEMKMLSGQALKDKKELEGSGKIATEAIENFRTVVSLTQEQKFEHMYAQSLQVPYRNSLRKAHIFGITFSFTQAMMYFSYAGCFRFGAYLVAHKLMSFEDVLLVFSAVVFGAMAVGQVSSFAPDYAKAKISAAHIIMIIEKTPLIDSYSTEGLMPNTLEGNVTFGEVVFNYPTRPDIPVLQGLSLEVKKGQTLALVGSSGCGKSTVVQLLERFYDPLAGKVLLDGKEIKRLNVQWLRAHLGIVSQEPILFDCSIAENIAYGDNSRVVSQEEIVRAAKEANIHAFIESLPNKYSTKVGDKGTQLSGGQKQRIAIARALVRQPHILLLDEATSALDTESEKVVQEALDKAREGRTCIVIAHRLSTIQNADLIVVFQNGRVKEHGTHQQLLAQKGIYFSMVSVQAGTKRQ

human MRP2 = biological target: T2, human MRP2 (Homo sapiens, UniProt Q92887); assay: [3H] ADP binding amount by vanadate method, human MRP2-expressing Sf9 membrane; format: biochemical; conditions: substrate 0.1 mM; reaction time 5 minutes; 37° C.; FIG. 6
T2 construct: made in house; host or cells: Sf9 insect cells (baculovirus, pFASTBac1)
T2 sequence (Q92887 whole entry): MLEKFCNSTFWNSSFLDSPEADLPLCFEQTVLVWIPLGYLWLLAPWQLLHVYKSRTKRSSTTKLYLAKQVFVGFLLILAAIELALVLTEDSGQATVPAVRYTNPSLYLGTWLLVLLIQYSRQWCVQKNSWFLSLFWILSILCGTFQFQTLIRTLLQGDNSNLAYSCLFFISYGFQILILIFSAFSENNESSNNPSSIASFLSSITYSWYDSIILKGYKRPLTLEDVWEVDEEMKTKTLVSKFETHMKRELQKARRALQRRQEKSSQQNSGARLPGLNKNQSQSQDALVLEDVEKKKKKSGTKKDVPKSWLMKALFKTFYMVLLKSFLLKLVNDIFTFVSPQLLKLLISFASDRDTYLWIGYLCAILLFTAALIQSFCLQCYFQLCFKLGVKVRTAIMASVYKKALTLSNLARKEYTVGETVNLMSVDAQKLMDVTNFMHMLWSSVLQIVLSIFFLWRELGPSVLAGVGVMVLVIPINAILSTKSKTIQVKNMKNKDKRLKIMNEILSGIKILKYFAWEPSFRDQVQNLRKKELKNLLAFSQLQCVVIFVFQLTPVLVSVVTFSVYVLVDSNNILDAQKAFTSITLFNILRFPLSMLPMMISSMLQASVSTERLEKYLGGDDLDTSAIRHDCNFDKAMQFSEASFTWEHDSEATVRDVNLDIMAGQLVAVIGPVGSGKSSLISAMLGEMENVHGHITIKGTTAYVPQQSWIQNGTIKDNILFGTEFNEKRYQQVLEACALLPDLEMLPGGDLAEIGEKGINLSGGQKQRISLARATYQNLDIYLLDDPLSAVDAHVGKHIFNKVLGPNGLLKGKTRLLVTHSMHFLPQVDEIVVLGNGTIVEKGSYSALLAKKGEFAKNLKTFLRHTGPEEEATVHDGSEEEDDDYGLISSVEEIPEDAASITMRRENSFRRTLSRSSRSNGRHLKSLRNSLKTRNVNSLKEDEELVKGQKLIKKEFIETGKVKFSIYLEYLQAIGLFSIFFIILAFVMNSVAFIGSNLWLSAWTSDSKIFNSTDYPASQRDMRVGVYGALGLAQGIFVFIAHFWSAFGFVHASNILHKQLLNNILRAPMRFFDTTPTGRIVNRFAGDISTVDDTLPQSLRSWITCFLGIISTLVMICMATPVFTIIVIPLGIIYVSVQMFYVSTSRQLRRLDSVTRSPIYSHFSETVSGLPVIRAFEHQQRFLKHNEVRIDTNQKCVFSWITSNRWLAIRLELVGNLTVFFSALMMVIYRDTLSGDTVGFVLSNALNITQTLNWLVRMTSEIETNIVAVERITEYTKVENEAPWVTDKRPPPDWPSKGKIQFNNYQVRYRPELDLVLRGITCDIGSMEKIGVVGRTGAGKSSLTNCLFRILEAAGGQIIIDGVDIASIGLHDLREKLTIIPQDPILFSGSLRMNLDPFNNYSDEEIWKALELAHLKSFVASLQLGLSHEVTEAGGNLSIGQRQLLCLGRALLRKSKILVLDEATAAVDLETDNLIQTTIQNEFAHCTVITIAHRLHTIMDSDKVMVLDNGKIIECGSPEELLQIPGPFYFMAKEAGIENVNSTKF

| [3H] ADP binding activity compared to P-glycoprotein-expressing membrane without substrate [1] | Molecule | [3H] ADP binding activity compared to MRP2-expressing membranes without substrate (human MRP2) |
| --- | --- | --- |
| significant increase | CC[C@]1(O)C[C@H]2CN(CCc3c([nH]c4ccccc34)[C@@](C(=O)OC)(c3cc4c(cc3OC)N(C=O)[C@H]3[C@@](O)(C(=O)OC)[C@H](OC(C)=O)[C@]5(CC)C=CCN6CC[C@]43[C@@H]65)C2)C1 [Vincristine] |  |
| significant increase | COc1cccc2c1C(=O)c1c(O)c3c(c(O)c1C2=O)C[C@@](O)(C(C)=O)C[C@@H]3O[C@H]1C[C@H](N)[C@H](O)[C@H](C)O1 [Daunorubicin] |  |
| significant increase | CN(Cc1cnc2nc(N)nc(N)c2n1)c1ccc(C(=O)N[C@@H](CCC(=O)O)C(=O)O)cc1 [Methotrexate] |  |
| significant increase | COc1cccc2c1C(=O)c1c(O)c3c(c(O)c1C2=O)C[C@@](O)(C(=O)CO)C[C@@H]3O[C@H]1C[C@H](N)[C@H](O)[C@H](C)O1 [Doxorubicin] |  |
|  | β-estradiol-17-(β-D-glucuronide) [β-estradiol-17 (β-D-glucuronide)] | increase of significant [^3H] ADP binding activity |
| significant increase | Nc1nc2ncc(CNc3ccc(C(=O)N[C@@H](CCC(=O)O)C(=O)O)cc3)nc2c(=O)[nH]1 [Folate] |  |
| significant increase | CC[C@]1(O)C[C@@H]2CN(CCc3c([nH]c4ccccc34)[C@@](C(=O)OC)(c3cc4c(cc3OC)N(C)[C@H]3[C@@](O)(C(=O)OC)[C@H](OC(C)=O)[C@]5(CC)C=CCN6CC[C@]43[C@@H]65)C2)C1 [Vinbrastine] |  |

| Molecule | [3H] ADP binding activity compared to P-glycoprotein-expressing membrane without substrate [1] | [3H] ADP binding activity compared to MRP2-expressing membranes without substrate (human MRP2) |
| --- | --- | --- |
| O=C1OC(c2ccc(O)c(S(=O)(=O)O)c2)(c2ccc(O)c(S(=O)(=O)O)c2)c2c(Br)c(Br)c(Br)c(Br)c21 [Bromosulfalein] | lowered significantly | increase of significant [^3H] ADP binding activity |
